# PubChem BioAssay AID1918936 (Molecular Pharmacology Branch, DTP, NCI, 2023)
# Several values for one entry are separate records, joined by “and”; a condition that tells them apart may be missing. Equal values may be shown once.
# Test system: 349418-098-R-PDC complex spheroid viability
# Experiment: Anticancer human tumor 349418-098-R-PDC patient-derived lung adenocarcinoma cell line growth inhibition
# Settings: for viability, T/C: stronger effect = lower value
# In short: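 Drug combinations with the LSD1 inhibitor iadademstat tested on tumor cells co-cultured as spheroids with endothelial cells and mesenchymal stem cells. Concentrations descended in half-log increments from clinical Cmax or 10 microM.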
# [1] = curve of first compound, second compound 0.1 µM
# [2] = curve of first compound, second compound 0.316 µM
# [3] = curve of first compound, second compound 1 µM
# [4] = curve of first compound, second compound 3.16 µM
# [5] = curve of first compound, second compound 10 µM
# [6] = second compound 0.1 µM, first compound 0.000949 µM
# [7] = second compound 0.1 µM, first compound 0.003 µM
# [8] = second compound 0.1 µM, first compound 0.00949 µM
# [9] = second compound 0.1 µM, first compound 0.03 µM
# [10] = second compound 0.1 µM, first compound 0.0949 µM
# [11] = second compound 0.1 µM, first compound 0.3 µM
# [12] = second compound 0.316 µM, first compound 0.000949 µM
# [13] = second compound 0.316 µM, first compound 0.003 µM
# [14] = second compound 0.316 µM, first compound 0.00949 µM
# [15] = second compound 0.316 µM, first compound 0.03 µM
# [16] = second compound 0.316 µM, first compound 0.0949 µM
# [17] = second compound 0.316 µM, first compound 0.3 µM
# [18] = second compound 1 µM, first compound 0.000949 µM
# [19] = second compound 1 µM, first compound 0.003 µM
# [20] = second compound 1 µM, first compound 0.00949 µM
# [21] = second compound 1 µM, first compound 0.03 µM
# [22] = second compound 1 µM, first compound 0.0949 µM
# [23] = second compound 1 µM, first compound 0.3 µM
# [24] = second compound 3.16 µM, first compound 0.000949 µM
# [25] = second compound 3.16 µM, first compound 0.003 µM
# [26] = second compound 3.16 µM, first compound 0.00949 µM
# [27] = second compound 3.16 µM, first compound 0.03 µM
# [28] = second compound 3.16 µM, first compound 0.0949 µM
# [29] = second compound 3.16 µM, first compound 0.3 µM
# [30] = second compound 10 µM, first compound 0.000949 µM
# [31] = second compound 10 µM, first compound 0.003 µM
# [32] = second compound 10 µM, first compound 0.00949 µM
# [33] = second compound 10 µM, first compound 0.03 µM
# [34] = second compound 10 µM, first compound 0.0949 µM
# [35] = second compound 10 µM, first compound 0.3 µM
# [36] = second compound 0.1 µM, first compound 0.0316 µM
# [37] = second compound 0.1 µM, first compound 0.1 µM
# [38] = second compound 0.1 µM, first compound 0.316 µM
# [39] = second compound 0.1 µM, first compound 1 µM
# [40] = second compound 0.1 µM, first compound 3.16 µM
# [41] = second compound 0.1 µM, first compound 10 µM
# [42] = second compound 0.316 µM, first compound 0.0316 µM
# [43] = second compound 0.316 µM, first compound 0.1 µM
# [44] = second compound 0.316 µM, first compound 0.316 µM
# [45] = second compound 0.316 µM, first compound 1 µM
# [46] = second compound 0.316 µM, first compound 3.16 µM
# [47] = second compound 0.316 µM, first compound 10 µM
# [48] = second compound 1 µM, first compound 0.0316 µM
# [49] = second compound 1 µM, first compound 0.1 µM
# [50] = second compound 1 µM, first compound 0.316 µM
# [51] = second compound 1 µM, first compound 1 µM
# [52] = second compound 1 µM, first compound 3.16 µM
# [53] = second compound 1 µM, first compound 10 µM
# [54] = second compound 3.16 µM, first compound 0.0316 µM
# [55] = second compound 3.16 µM, first compound 0.1 µM
# [56] = second compound 3.16 µM, first compound 0.316 µM
# [57] = second compound 3.16 µM, first compound 1 µM
# [58] = second compound 3.16 µM, first compound 3.16 µM
# [59] = second compound 3.16 µM, first compound 10 µM
# [60] = second compound 10 µM, first compound 0.0316 µM
# [61] = second compound 10 µM, first compound 0.1 µM
# [62] = second compound 10 µM, first compound 0.316 µM
# [63] = second compound 10 µM, first compound 1 µM
# [64] = second compound 10 µM, first compound 3.16 µM
# [65] = second compound 10 µM, first compound 10 µM
# 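Also: spheroids exposed to agents for seven days before readout.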
# 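For viability, T/C in this document: 100% = DMSO vehicle control wells.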
structure (smiles),measurement,setting,value
Nc1ncn(C2CC(O)C(CO)S2)c(=O)n1 (configuration not stated) + NC1CC1c1ccc(-c2cccc(O)c2)cc1,IC50,[1],0.025 µM
same,IC50,[2],0.0239 µM
same,IC50,[3],0.0279 µM
same,IC50,[4],0.0271 µM
same,IC50,[5],0.0195 µM
same,"viability, T/C",[6],113%
same,"viability, T/C",[7],112%
same,"viability, T/C",[8],87.1%
same,"viability, T/C",[9],42.6%
same,"viability, T/C",[10],15.4%
same,"viability, T/C",[11],5.99%
same,"viability, T/C",[12],112%
same,"viability, T/C",[13],106%
same,"viability, T/C",[14],93%
same,"viability, T/C",[15],39%
same,"viability, T/C",[16],12.2%
same,"viability, T/C",[17],6.04%
same,"viability, T/C",[18],117%
same,"viability, T/C",[19],107%
same,"viability, T/C",[20],96.8%
same,"viability, T/C",[21],46.3%
same,"viability, T/C",[22],13.5%
same,"viability, T/C",[23],5.81%
same,"viability, T/C",[24],115%
same,"viability, T/C",[25],115%
same,"viability, T/C",[26],96.3%
same,"viability, T/C",[27],44.6%
same,"viability, T/C",[28],17.3%
same,"viability, T/C",[29],6.89%
same,"viability, T/C",[30],87.2%
same,"viability, T/C",[31],81.6%
same,"viability, T/C",[32],75.4%
same,"viability, T/C",[33],34.5%
same,"viability, T/C",[34],14.5%
same,"viability, T/C",[35],5.54%
Nc1ncn(C2CC(O)C(CO)S2)c(=O)n1 (configuration not stated) + NC1CCC(NC2CC2c2ccccc2)CC1,IC50,[1],0.0185 µM
same,IC50,[2],0.0192 µM
same,IC50,[3],0.0203 µM
same,IC50,[4],0.0192 µM
same,IC50,[5],0.0124 µM
same,"viability, T/C",[6],107%
same,"viability, T/C",[7],85.5%
same,"viability, T/C",[8],71.7%
same,"viability, T/C",[9],34.7%
same,"viability, T/C",[10],19.6%
same,"viability, T/C",[11],8.78%
same,"viability, T/C",[12],104%
same,"viability, T/C",[13],100%
same,"viability, T/C",[14],71.6%
same,"viability, T/C",[15],35.9%
same,"viability, T/C",[16],16.1%
same,"viability, T/C",[17],9.32%
same,"viability, T/C",[18],117%
same,"viability, T/C",[19],96.2%
same,"viability, T/C",[20],74.3%
same,"viability, T/C",[21],38.1%
same,"viability, T/C",[22],16.1%
same,"viability, T/C",[23],8.39%
same,"viability, T/C",[24],97.5%
same,"viability, T/C",[25],89.8%
same,"viability, T/C",[26],73.4%
same,"viability, T/C",[27],34.8%
same,"viability, T/C",[28],15.6%
same,"viability, T/C",[29],7.02%
same,"viability, T/C",[30],75.8%
same,"viability, T/C",[31],86%
same,"viability, T/C",[32],51.1%
same,"viability, T/C",[33],30.3%
same,"viability, T/C",[34],16%
same,"viability, T/C",[35],7.62%
O=C(c1cc(Cc2n[nH]c(=O)c3ccccc23)ccc1F)N1CCN(C(=O)C2CC2)CC1 + NC1CCC(NC2CC2c2ccccc2)CC1,IC50,[1],4.25 µM
same,IC50,[2],5.9 µM
same,IC50,[3],4.18 µM
same,IC50,[4],4.91 µM
same,IC50,[5],2.52 µM
same,"viability, T/C",[36],93.9%
same,"viability, T/C",[37],88.8%
same,"viability, T/C",[38],82.6%
same,"viability, T/C",[39],77.8%
same,"viability, T/C",[40],51.7%
same,"viability, T/C",[41],40.6%
same,"viability, T/C",[42],93.8%
same,"viability, T/C",[43],87.3%
same,"viability, T/C",[44],82.4%
same,"viability, T/C",[45],77.2%
same,"viability, T/C",[46],59.5%
same,"viability, T/C",[47],41.1%
same,"viability, T/C",[48],106%
same,"viability, T/C",[49],98.1%
same,"viability, T/C",[50],79.4%
same,"viability, T/C",[51],75.4%
same,"viability, T/C",[52],62.2%
same,"viability, T/C",[53],28.9%
same,"viability, T/C",[54],92.4%
same,"viability, T/C",[55],89%
same,"viability, T/C",[56],87%
same,"viability, T/C",[57],69.6%
same,"viability, T/C",[58],64.6%
same,"viability, T/C",[59],32.4%
same,"viability, T/C",[60],89.5%
same,"viability, T/C",[61],68.7%
same,"viability, T/C",[62],64.8%
same,"viability, T/C",[63],62.4%
same,"viability, T/C",[64],48.7%
same,"viability, T/C",[65],38.2%
Nc1ccccc1NC(=O)c1ccc(CNC(=O)OCc2cccnc2)cc1,"viability, T/C",compound 0.00949 µM,92.5% and 80.8%
same,"viability, T/C",compound 0.03 µM,83% and 67.2%
same,"viability, T/C",compound 0.0949 µM,63.3% and 46.6%
same,"viability, T/C",compound 0.3 µM,44.4% and 22.8%
same,"viability, T/C",compound 0.949 µM,17.9% and 5.31%
same,"viability, T/C",compound 3 µM,5.6% and 3.19%
same,IC50,curve of compound,0.2 µM and 0.0773 µM
CC1COCCN1c1cc(-c2ccnn2C)c2ccnc(-c3ccn[nH]3)c2n1 (configuration not stated) + NC1CCC(NC2CC2c2ccccc2)CC1,IC50,[1],0.0137 µM
same,IC50,[2],0.0161 µM
same,IC50,[3],0.0114 µM
same,IC50,[4],0.00965 µM
same,IC50,[5],0.0081 µM
same,"viability, T/C","second compound 0.1 µM, first compound 0.00316 µM",91.5%
same,"viability, T/C","second compound 0.1 µM, first compound 0.01 µM",62.6%
same,"viability, T/C",[36],16.8%
same,"viability, T/C",[37],9.57%
same,"viability, T/C",[38],7.39%
same,"viability, T/C",[39],5.98%
same,"viability, T/C","second compound 0.316 µM, first compound 0.00316 µM",108%
same,"viability, T/C","second compound 0.316 µM, first compound 0.01 µM",71.9%
same,"viability, T/C",[42],18.5%
same,"viability, T/C",[43],9.43%
same,"viability, T/C",[44],6.72%
same,"viability, T/C",[45],6.47%
same,"viability, T/C","second compound 1 µM, first compound 0.00316 µM",98.5%
same,"viability, T/C","second compound 1 µM, first compound 0.01 µM",54.5%
same,"viability, T/C",[48],16.6%
same,"viability, T/C",[49],9.69%
same,"viability, T/C",[50],7.82%
same,"viability, T/C",[51],5.98%
same,"viability, T/C","second compound 3.16 µM, first compound 0.00316 µM",98.1%
same,"viability, T/C","second compound 3.16 µM, first compound 0.01 µM",48.5%
same,"viability, T/C",[54],14.4%
same,"viability, T/C",[55],8.55%
same,"viability, T/C",[56],6.56%
same,"viability, T/C",[57],5.96%
same,"viability, T/C","second compound 10 µM, first compound 0.00316 µM",90.7%
same,"viability, T/C","second compound 10 µM, first compound 0.01 µM",40.9%
same,"viability, T/C",[60],14.5%
same,"viability, T/C",[61],7.6%
same,"viability, T/C",[62],6.06%
same,"viability, T/C",[63],5.03%
COc1ccc([C@@H](O)c2cc(-c3ncnc4cc(N5CCOCC5)ccc34)c(F)cc2Cl)nn1 + NC1CC1c1ccc(-c2cccc(O)c2)cc1,IC50,[1],0.696 µM
same,IC50,[2],0.741 µM
same,IC50,[3],0.644 µM
same,IC50,[4],0.547 µM
same,IC50,[5],0.185 µM
same,"viability, T/C",[36],96.6%
same,"viability, T/C",[37],88.1%
same,"viability, T/C",[38],71.4%
same,"viability, T/C",[39],42.1%
same,"viability, T/C",[40],10.1%
same,"viability, T/C",[41],3.99%
same,"viability, T/C",[42],104%
same,"viability, T/C",[43],93.8%
same,"viability, T/C",[44],87.7%
same,"viability, T/C",[45],36.8%
same,"viability, T/C",[46],8.34%
same,"viability, T/C",[47],3.86%
same,"viability, T/C",[48],106%
same,"viability, T/C",[49],91.9%
same,"viability, T/C",[50],75%
same,"viability, T/C",[51],36.2%
same,"viability, T/C",[52],7.37%
same,"viability, T/C",[53],4.08%
same,"viability, T/C",[54],94.8%
same,"viability, T/C",[55],83.5%
same,"viability, T/C",[56],67.9%
same,"viability, T/C",[57],32.1%
same,"viability, T/C",[58],6.81%
same,"viability, T/C",[59],4.07%
same,"viability, T/C",[60],71.7%
same,"viability, T/C",[61],62.7%
same,"viability, T/C",[62],38.1%
same,"viability, T/C",[63],21.9%
same,"viability, T/C",[64],4.81%
same,"viability, T/C",[65],3.46%
